From ChEMBL document CHEMBL1157902, “New diterpenoids from Caesalpinia species and their cytotoxic activity” (Bioorg Med Chem Lett, 2010)

Experiments:
HL-60 = assay: Cytotoxicity against human HL60 cells by MTT assay; type: functional, cell-based
HeLa = assay: Cytotoxicity against human HeLa cells by MTT assay; type: functional, cell-based

SMILES | IC50 (HL-60) [µM] | IC50 (HeLa) [µM] | Activity (HL-60) | Activity (HeLa)
CC[C@@]1(O)C(=O)OCc2c1cc1n(c2=O)Cc2cc3ccccc3nc2-1 [CAMPTOTHECIN] | 0.59 | 0.94 | – | –
C[C@H]1C2=CC(=O)O[C@]2(O)C[C@H]2[C@H]1[C@@H](O)[C@@H](OC(=O)c1ccccc1)[C@@]1(O)C(C)(C)CCC[C@]21C | 44.9 | 52.7 | Dose-dependent effect | Dose-dependent effect
CC(=O)O[C@@H]1[C@H]2[C@@H](C)c3ccoc3C[C@@H]2[C@@]2(C)CCCC(C)(C)[C@]2(O)[C@@H]1OC(=O)/C=C/c1ccccc1 | 17.4 | 33.4 | Dose-dependent effect | Dose-dependent effect
COc1cc([C@@H]2c3cc4c(cc3[C@@H](O[C@@H]3O[C@@H]5CO[C@@H](C)O[C@H]5[C@H](O)[C@H]3O)[C@H]3COC(=O)[C@H]23)OCO4)cc(OC)c1O [ETOPOSIDE] | – | 8.93 | – | –
C[C@H]1c2ccoc2C[C@H]2[C@H]1[C@@H](OC(=O)c1ccccc1)[C@@H](OC(=O)c1ccccc1)[C@@]1(O)C(C)(C)CCC[C@]21C | 19.8 | 33.9 | Dose-dependent effect | Dose-dependent effect
